The source of these data is US20100004289A1, “SUBSTITUTED BUTYROPHENONE DERIVATIVES” (priority 2005, published 2010).

Data set [1] addresses T1, histamine H1 receptor (rat cortex) (Rattus norvegicus, UniProt P31390).
T1 construct: tissue Pel-Freez (Rogers, Ark.); host or cells: rat cortex
Briefly: Competitive binding at histamine H1 receptor. Particulars: read-out: dissociation constant at histamine H1 receptor.
Protocol: (§2) The competition between a compound and a [^3H]ligand for binding at the various receptors was done as follows. Each incubation tube (12×75 mm glass) received, in the following order, 0.5 ml buffer (50 mM Tris-HCl, pH 7.4 at 20° C., 1 mM EDTA, 5 mM KCl, 120 mM NaCl, 1.5 mM CaCl2, 4 mM MgCl2) containing a range of drug concentrations (final concentrations of 0.01 nM to 1,000 nM) or an excess of a second drug in order to define nonspecific binding, followed by the addition of 0.25 ml [^3H]ligand, and 0.25 ml of homogenized tissue suspension. […] After filtering the incubate, the filter mat was rinsed with buffer for 15 s (7.5 ml buffer). The filters were pushed out and placed in scintillation minivials (Packard Instruments, Chicago, Ill.).

Data set [2] addresses T2, serotonin-1A receptor (rat frontal cortex tissue) (Rattus norvegicus, UniProt P19327).
T2 construct: tissue Pel-Freez (Rogers, Ark.); host or cells: rat frontal cerebral cortex
T2 sequence (P19327 1-422): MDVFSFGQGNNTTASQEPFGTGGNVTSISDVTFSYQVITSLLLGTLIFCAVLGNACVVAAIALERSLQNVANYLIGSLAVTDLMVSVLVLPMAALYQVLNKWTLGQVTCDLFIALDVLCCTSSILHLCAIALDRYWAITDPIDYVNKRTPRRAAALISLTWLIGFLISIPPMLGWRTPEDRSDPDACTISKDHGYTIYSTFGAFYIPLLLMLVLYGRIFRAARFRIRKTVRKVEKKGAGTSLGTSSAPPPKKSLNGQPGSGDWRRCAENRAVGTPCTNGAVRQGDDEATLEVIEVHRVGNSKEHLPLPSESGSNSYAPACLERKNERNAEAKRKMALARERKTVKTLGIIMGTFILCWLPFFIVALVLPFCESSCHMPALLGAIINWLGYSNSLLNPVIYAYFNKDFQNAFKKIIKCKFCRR
Briefly: Competitive binding at serotonin-1A receptor ([3H]8-OH-DPAT), rat tissue. The conditions noted are these: read-out: dissociation constant at serotonin-1A receptor.
Protocol: (§3) Rat brains were purchased from Pel-Freez (Rogers, Ark.) and stored at −70° C. […] Before each experiment, the striatum or the frontal cerebral cortex (free of myelin) was dissected from the partly thawed rat brain on a glass plate on a bed of dry ice. The dissected tissue was suspended in buffer (50 mM Tris-HCl, pH 7.4 at 20° C., 1 mM EDTA, 5 mM KCl, 120 mM NaCl, 1.5 mM CaCl2, 4 mM MgCl2) at 4 mg original wet weight per ml suspension.
as §2
(§4) Competition at the muscarinic receptors was done using either the cloned M1 receptors or the rat frontal cortex, 0.6 nM [^3H]QNB, and using 200 nM atropine to define nonspecific binding. […]

The target of data set [3] is T3, alpha-2-adrenoceptor (cloned in Sf9 cells) (Homo sapiens, UniProt P08913).
T3 construct: purchased Research Biochemicals International (Natick, Mass.); host or cells: Sf9 cells
T3 sequence (P08913 1-465): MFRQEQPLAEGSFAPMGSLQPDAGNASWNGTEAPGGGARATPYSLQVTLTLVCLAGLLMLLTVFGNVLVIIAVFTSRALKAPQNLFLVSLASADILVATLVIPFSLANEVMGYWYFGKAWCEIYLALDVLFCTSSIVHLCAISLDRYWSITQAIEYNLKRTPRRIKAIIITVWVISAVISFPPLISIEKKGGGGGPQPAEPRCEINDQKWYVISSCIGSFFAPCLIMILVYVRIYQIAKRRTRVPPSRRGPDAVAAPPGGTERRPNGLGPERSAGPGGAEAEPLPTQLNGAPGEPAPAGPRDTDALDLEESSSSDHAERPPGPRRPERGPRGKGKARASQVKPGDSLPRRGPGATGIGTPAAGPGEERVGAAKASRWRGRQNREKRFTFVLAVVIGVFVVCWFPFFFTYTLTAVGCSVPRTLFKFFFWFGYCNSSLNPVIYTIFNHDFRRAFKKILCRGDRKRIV
Briefly: Competitive binding at alpha-2-adrenoceptor ([3H]yohimbine). Particulars: read-out: dissociation constant at alpha-2-adrenoceptor. How it is done:
(§1) Human dopamine D1 receptors (in Sf9 cells or COS cells), human dopamine D2Long receptors (in Sf9 cells or CHO cells), human alpha-adrenoceptor-2A receptors, and human muscarinic M1 receptors, all expressed in Sf9 cells, were purchased from Research Biochemicals International (Natick, Mass.). The frozen membranes containing the receptors were directly suspended at approximately 100 μg protein/ml and the cell suspension was homogenized for 5 s (Polytron, setting 5) without any further washing.

Data set [4] concerns the target muscarinic cholinergic receptor (rat cortex tissue). Briefly: Competitive binding at muscarinic receptor ([3H]QNB). Particulars: read-out: dissociation constant at muscarinic cholinergic receptor.
Protocol: as §3, §2, §4
The target in data set [5] is T4, dopamine D2 receptors (Rattus norvegicus, UniProt P61169).
T4 construct: from tissue; host or cells: striatum of living Sprague-Dawley rats
T4 sequence (P61169 whole entry): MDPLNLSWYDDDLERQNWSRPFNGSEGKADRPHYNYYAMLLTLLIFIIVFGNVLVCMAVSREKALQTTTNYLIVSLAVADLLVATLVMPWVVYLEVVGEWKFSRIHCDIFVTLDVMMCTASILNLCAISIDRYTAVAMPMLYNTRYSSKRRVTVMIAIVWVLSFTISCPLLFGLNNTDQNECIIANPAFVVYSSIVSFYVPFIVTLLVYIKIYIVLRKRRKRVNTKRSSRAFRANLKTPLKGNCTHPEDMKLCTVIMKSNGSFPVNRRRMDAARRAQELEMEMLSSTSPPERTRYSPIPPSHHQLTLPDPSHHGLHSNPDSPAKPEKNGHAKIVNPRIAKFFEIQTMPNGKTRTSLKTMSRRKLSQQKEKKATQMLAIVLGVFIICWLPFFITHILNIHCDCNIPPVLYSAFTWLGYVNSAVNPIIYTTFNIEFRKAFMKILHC
Briefly: In vivo D2 occupancy ([3H]raclopride, striatum). Particulars: for receptor occupancy at 20 mg/kg: po, oral 20 mg/kg, rats. As to the method: Sprague-Dawley rats (each 250 g) received an oral dose of test compound of 20 mg/kg by gavage, using 2 ml per gavage feeding. The test compound solution was prepared as follows: 20 mg of test compound was added to 8 ml saline (0.9% NaCl), followed by the addition of a few drops of 2% lactic acid and back titration of the suspension to pH 5 using 0.1 N NaOH. A fine particulate suspension was used for gavage. Each rat received 2 ml of the suspension over a period of 5 minutes. […] The D2 occupancy in the striatum was calculated.

Data set [6] has as its target T5, cloned dopamine D2 receptor (Homo sapiens, UniProt P14416).
T5 construct: purchased Research Biochemicals International (Natick, Mass.); host or cells: Sf9 cells or CHO cells
Briefly: Dissociation from the cloned dopamine D2 receptor. The data set is classed as binding.

Data set [7] has as its target T6, dopamine D1 receptor (rat striatal tissue) (Rattus norvegicus, UniProt P18901).
T6 construct: tissue Pel-Freez (Rogers, Ark.); host or cells: rat brain striatum
Briefly: Competitive binding at dopamine D1 receptor ([3H]SCH23390), rat tissue. Particulars: read-out: dissociation constant at dopamine D1 receptor.
Protocol: as §3, §2, §4

Data set [8] has as its target alpha-1-adrenoceptor (rat cortex). Briefly: Competitive binding at alpha-1-adrenoceptor ([3H]prazosin). The conditions noted are these: read-out: dissociation constant at alpha-1-adrenoceptor.
Protocol: as §3, §2, §4
In data set [9] the test system is catalepsy. Briefly: Catalepsy (horizontal bar). The class given is in vivo. Particulars: up to 60 mg/kg in mice. From the text:
The front paws of the animal were placed on a horizontal bar. Control animals quickly moved off the bar. Cataleptic animals held on to the bar for up to 15 seconds or more.

Data set [10] has as its target sigma receptor (rat striatal tissue) (Rattus norvegicus, UniProt Q9R0C9). Briefly: biochemical.
Protocol: as §3, §2, §4
Data set [11] concerns the target T7, HERG channel receptor (Rattus norvegicus, UniProt O08962).
T7 sequence (O08962 1-1163): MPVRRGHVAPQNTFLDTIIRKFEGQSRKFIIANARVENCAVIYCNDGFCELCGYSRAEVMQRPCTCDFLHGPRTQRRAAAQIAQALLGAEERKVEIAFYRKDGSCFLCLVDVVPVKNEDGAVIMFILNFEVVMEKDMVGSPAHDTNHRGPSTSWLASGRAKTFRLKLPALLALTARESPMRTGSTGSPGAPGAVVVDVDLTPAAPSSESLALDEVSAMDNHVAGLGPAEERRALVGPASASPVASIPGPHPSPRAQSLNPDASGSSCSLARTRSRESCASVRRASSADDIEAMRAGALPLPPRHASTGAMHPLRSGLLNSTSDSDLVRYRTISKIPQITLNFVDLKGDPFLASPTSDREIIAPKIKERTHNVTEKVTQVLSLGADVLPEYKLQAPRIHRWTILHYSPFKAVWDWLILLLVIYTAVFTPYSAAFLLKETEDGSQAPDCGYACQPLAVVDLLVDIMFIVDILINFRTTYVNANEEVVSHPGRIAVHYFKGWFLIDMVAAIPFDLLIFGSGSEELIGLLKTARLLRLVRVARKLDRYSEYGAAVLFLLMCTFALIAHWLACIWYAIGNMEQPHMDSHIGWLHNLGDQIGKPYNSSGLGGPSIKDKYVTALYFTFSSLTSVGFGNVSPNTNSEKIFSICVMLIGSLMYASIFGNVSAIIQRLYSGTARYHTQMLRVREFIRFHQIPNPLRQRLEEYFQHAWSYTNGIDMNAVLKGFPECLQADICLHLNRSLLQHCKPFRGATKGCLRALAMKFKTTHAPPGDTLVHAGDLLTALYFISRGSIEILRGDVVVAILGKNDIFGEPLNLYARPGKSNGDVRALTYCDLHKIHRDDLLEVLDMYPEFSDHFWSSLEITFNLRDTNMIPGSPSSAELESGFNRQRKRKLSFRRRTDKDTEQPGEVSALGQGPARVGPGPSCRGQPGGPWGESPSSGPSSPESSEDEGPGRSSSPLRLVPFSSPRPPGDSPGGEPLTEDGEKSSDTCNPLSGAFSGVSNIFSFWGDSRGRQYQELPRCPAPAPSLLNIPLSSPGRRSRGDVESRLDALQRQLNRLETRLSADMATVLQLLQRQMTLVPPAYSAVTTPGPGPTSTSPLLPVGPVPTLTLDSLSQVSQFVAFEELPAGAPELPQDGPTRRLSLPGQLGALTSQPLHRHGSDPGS
Briefly: Competitive binding at HERG channel ([3H]dofetilide).
Protocol: as §2

Data set [12] deals with T8, cloned dopamine human D2Long receptor (Homo sapiens, UniProt P14416).
T8 construct: purchased Research Biochemicals International (Natick, Mass.); host or cells: Sf9 cells or CHO cells
T8 sequence (P14416 whole entry): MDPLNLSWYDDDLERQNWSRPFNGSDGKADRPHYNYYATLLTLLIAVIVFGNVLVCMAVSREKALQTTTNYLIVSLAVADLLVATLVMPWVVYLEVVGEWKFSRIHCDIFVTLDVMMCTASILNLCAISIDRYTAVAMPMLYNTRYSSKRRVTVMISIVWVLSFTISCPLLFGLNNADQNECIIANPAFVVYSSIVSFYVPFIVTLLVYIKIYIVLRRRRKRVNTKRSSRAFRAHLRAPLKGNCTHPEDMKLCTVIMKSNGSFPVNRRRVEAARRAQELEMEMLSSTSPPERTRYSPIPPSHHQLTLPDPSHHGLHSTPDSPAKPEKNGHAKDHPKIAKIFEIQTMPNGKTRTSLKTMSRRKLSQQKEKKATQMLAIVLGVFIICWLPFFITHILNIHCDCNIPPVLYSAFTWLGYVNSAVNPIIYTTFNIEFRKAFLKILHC
Briefly: Competitive binding at cloned dopamine D2 receptor ([3H]raclopride). Particulars: 2 nM [3H]raclopride, read-out: dissociation constant, K, at D2 receptor. How it is done:
as §1

For data set [13], the target named is rat brain or human brain dopamine D2 receptor. The conditions noted are these: read-out: affinity (dissociation constant) of dopamine at the high-affinity state of D2; cited from earlier work.

What is called melting point is the temperature, or range, at which the solid turns liquid.

Values joined by “and” are separate entries in the source; they are usually repeats but may differ in a detail not shown here. Equal values may be shown once.

T6 sequence (P18901 whole entry): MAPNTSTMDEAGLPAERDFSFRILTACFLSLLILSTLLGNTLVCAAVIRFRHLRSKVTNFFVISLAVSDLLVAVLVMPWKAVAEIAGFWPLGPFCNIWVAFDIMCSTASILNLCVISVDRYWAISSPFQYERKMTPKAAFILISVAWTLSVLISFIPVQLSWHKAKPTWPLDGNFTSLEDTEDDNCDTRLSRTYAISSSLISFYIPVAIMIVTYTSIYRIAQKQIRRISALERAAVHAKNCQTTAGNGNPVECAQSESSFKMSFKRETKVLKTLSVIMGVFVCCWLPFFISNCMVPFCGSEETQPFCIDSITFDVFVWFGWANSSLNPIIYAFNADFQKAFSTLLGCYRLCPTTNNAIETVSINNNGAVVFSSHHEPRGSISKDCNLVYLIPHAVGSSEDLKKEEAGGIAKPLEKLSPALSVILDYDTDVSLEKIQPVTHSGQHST
T5 sequence (P14416 whole entry): as the sequence (P14416 whole entry) above
T1 sequence (P31390 whole entry): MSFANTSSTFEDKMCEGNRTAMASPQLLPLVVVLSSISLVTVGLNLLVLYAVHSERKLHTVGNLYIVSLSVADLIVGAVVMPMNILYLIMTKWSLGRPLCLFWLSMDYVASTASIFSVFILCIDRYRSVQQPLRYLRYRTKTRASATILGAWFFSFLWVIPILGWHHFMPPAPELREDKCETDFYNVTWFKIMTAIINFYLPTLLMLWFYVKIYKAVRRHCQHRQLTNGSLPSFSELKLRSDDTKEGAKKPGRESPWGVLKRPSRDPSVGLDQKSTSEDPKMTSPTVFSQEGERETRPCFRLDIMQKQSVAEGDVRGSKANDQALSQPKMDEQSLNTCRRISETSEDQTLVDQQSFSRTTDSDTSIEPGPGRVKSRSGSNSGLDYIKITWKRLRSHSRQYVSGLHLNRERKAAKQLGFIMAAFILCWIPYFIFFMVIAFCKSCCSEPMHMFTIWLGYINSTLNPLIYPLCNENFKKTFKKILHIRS
Chain of sigma receptor (rat striatal tissue) (Q9R0C9 whole entry): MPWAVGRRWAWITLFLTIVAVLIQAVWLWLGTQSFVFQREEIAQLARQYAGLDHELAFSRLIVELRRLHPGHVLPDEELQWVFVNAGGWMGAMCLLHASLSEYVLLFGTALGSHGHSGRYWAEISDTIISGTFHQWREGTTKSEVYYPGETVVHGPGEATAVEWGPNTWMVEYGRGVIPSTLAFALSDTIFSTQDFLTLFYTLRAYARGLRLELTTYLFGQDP

The compound `COc1cccc(C(=O)CCCN2CCC(O)(c3ccc(Cl)cc3)CC2)c1` [Example 2(a), 4-[4-(4-chlorophenyl)-4-hydroxypiperidin-1-yl]-1-(3-methoxyphenyl)butan-1-one] gave a melting point of 127 to 129 °C. In addition, the Ki in data set [1] worked out at 1140 nM. Moreover, the Ki in [2] was found to be 12000 nM. Also, the Ki in data set [3] stood at 9500 nM. The Ki in data set [4] was found to be 570 nM. For the same compound, the receptor occupancy at 20 mg/kg in data set [5] (30 min) stood at 39%. This compound registered a receptor occupancy at 20 mg/kg in data set [5] (1 hour) of 63%. The compound further yielded a receptor occupancy at 20 mg/kg in data set [5] (2 hour) of 24%. The receptor occupancy at 20 mg/kg in [5] (3 hour) stood at 28%. Also, the receptor occupancy at 10 mg/kg in data set [5] (sc, 10 mg/kg subcutaneous, after one hour, Sprague Dawley rats) was 61%. In addition, the “time at which dissociation from cloned D2 receptor was 50% completed” value in [6] is 23 s. In addition, the Ki in [7] worked out at 11000 nM. Also, the Ki in data set [8] was 1070 nM. The catalepsy entry in data set [9] was “did not result in any catalepsy”. The compound further showed a Ki in data set [10] of 200 nM. The Ki in data set [11] turned out to be 2600 nM. Further, the Ki in [12] turned out to be 140 ± 8 nM.

Regarding `NCCc1ccc(O)c(O)c1` [dopamine], the Kd in [13] was ~1.75 nM and 1.75 nM.

As for `COc1cccc(C(=O)CCCN2CCC(O)(c3ccccc3)CC2)c1` [Example 2(b), 4-[4-phenyl-4-hydroxypiperidin-1-yl]-1-(3-methoxyphenyl)butan-1-one, reference compound], the Ki in [12] came to 660 nM.
